The numbers were not newly measured in patent US4303671A, “Albumin stabilized prostacyclin” (priority 1980, dated 1981), which cites them from elsewhere.

Molecules are shown by their SMILES.

For series [1] the following is noted: kept in whole blood or plasma; The Lancet, July 29, 1978.
Series [2] concerns blood platelet aggregation. Conditions: at the time of its discovery.
The conditions of series [3]: under acid conditions, including at physiological pH's.
For series [4] the following is noted: human plasma and human serum albumin; FASEB Meeting abstract, 1980.
The conditions of series [5]: FEBS Letters 82:321-324 (1977).

As for `CCCCC[C@H](O)/C=C/[C@@H]1[C@H]2C/C(=C/CCCC(=O)O)O[C@H]2C[C@H]1O` [prostacyclin, 9-deoxy-6,9α-epoxy-(5Z)-5,6-didehydro-PGF1], the “protection against degradation (in words)” value in series [1] is “probably protected against degradation when kept in whole blood or plasma”. The “potency to inhibit blood platelet aggregation (in words)” value in series [2] is reported as “most potent prostaglandin-related substance effective to inhibit blood platelet aggregation”. Besides, the “chemical stability (in words)” value in series [3] is “spontaneously decomposes to 6-oxo-PGF1α”. Also, the “stabilization by albumin (in words)” value in series [4] is “albumin stabilizes prostacyclin”.

For the compound `CCCCC[C@H](O)/C=C/[C@H]1O[C@H]2C[C@H](O2)[C@@H]1C/C=C\CCCC(=O)O` [thromboxane A2], the “stabilization of thromboxane A2 by albumin (in words)” value in series [5] is on record as “ability to stabilize thromboxane A2”.
